Columns and labels:
Details in all cases: drug exposure time: 96 h
Serdemetan = compound: c1ccc2c(CCNc3ccc(Nc4ccncc4)cc3)c[nH]c2c1 [Serdemetan]
Protocol: (§1)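 Breast cancer cell lines were grown in RPMI 1640 with 10% FBS on collagen I-coated 96-well plates and treated for 96 h (from 24 h after seeding) with 12 dilutions per drug, in triplicate. Growth was read by sulforhodamine B total-protein staining (absorbance 570 nm) relative to diluent control, and IC50 was calculated. The top dose was 1e-5 M for most drugs; Bortezomib went to 2e-5 M and Sirolimus and 17-AAG to 2e-6 M[…].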

Docetaxel = compound: CC(=O)O[C@@]12CO[C@@H]1C[C@H](O)[C@@]1(C)C(=O)[C@H](O)C3=C(C)[C@@H](OC(=O)[C@H](O)[C@@H](NC(=O)OC(C)(C)C)c4ccccc4)C[C@@](O)([C@@H](OC(=O)c4ccccc4)[C@H]21)C3(C)C [Docetaxel]
Protocol: as §1

Nutlin-3 = compound: COc1ccc(C2=N[C@@H](c3ccc(Cl)cc3)[C@@H](c3ccc(Cl)cc3)N2C(=O)N2CCNC(=O)C2)c(OC(C)C)c1 [Nutlin-3]
Protocol: as §1

Sunitinib = compound: CCN(CC)CCNC(=O)c1c(C)[nH]c(/C=C2\C(=O)Nc3ccc(F)cc32)c1C [Sunitinib]
Protocol: as §1

Quisinostat = compound: Cn1cc(CNCC2CCN(c3ncc(C(=O)NO)cn3)CC2)c2ccccc21 [Quisinostat]
Protocol: as §1

Paclitaxel = compound: CC(=O)O[C@H]1C(=O)[C@@]2(C)[C@H]([C@H](OC(=O)c3ccccc3)[C@]3(O)C[C@H](OC(=O)[C@H](O)[C@@H](NC(=O)c4ccccc4)c4ccccc4)C(C)=C1C3(C)C)[C@]1(OC(C)=O)CO[C@@H]1C[C@@H]2O [Paclitaxel]
Protocol: as §1

Brivanib = compound: Cc1cc2c(F)c(Oc3ncnn4cc(OC[C@@H](C)O)c(C)c34)ccc2[nH]1 [Brivanib]
Protocol: as §1

Vorinostat = compound: O=C(CCCCCCC(=O)Nc1ccccc1)NO [Vorinostat]
Protocol: as §1

Cisplatin = compound: N.N.[Cl][Pt][Cl] [Cisplatin]
Protocol: as §1

Tamoxifen = compound: CC/C(=C(\c1ccccc1)c1ccc(OCCN(C)C)cc1)c1ccccc1 [Tamoxifen]
Protocol: as §1

Doxorubicin = compound: COc1cccc2c1C(=O)c1c(O)c3c(c(O)c1C2=O)C[C@@](O)(C(=O)CO)C[C@@H]3O[C@H]1C[C@H](N)[C@H](O)[C@H](C)O1 [Doxorubicin]
Protocol: as §1

5-Fluorouracil = compound: O=c1[nH]cc(F)c(=O)[nH]1 [5-Fluorouracil]
Protocol: as §1

Dasatinib = compound: Cc1nc(Nc2ncc(C(=O)Nc3c(C)cccc3Cl)s2)cc(N2CCN(CCO)CC2)n1 [Dasatinib]
Protocol: as §1

Tipifarnib = compound: Cn1cncc1[C@@](N)(c1ccc(Cl)cc1)c1ccc2c(c1)c(-c1cccc(Cl)c1)cc(=O)n2C [Tipifarnib]
Protocol: as §1

Gefitinib = compound: COc1cc2ncnc(Nc3ccc(F)c(Cl)c3)c2cc1OCCCN1CCOCC1 [Gefitinib]
Protocol: as §1

Azacitidine = compound: Nc1ncn([C@@H]2O[C@H](CO)[C@@H](O)[C@H]2O)c(=O)n1 [Azacitidine]
Protocol: as §1

Erlotinib = compound: C#Cc1cccc(Nc2ncnc3cc(OCCOC)c(OCCOC)cc23)c1 [Erlotinib]
Protocol: as §1

Lapatinib = compound: CS(=O)(=O)CCNCc1ccc(-c2ccc3ncnc(Nc4ccc(OCc5cccc(F)c5)c(Cl)c4)c3c2)o1 [Lapatinib]
Protocol: as §1

Belinostat = compound: O=C(/C=C/c1cccc(S(=O)(=O)Nc2ccccc2)c1)NO [Belinostat]
Protocol: as §1

Sorafenib = compound: CNC(=O)c1cc(Oc2ccc(NC(=O)Nc3ccc(Cl)c(C(F)(F)F)c3)cc2)ccn1 [Sorafenib]
Protocol: as §1

Methotrexate = compound: CN(Cc1cnc2nc(N)nc(N)c2n1)c1ccc(C(=O)N[C@@H](CCC(=O)O)C(=O)O)cc1 [Methotrexate]
Protocol: as §1

MI-219 = compound: CC(C)(C)C[C@H]1N[C@@H](C(=O)NCC[C@H](O)CO)[C@H](c2cccc(Cl)c2)[C@@]12C(=O)Nc1cc(Cl)c(F)cc12 [MI-219]
Protocol: as §1

Decitabine = compound: Nc1ncn([C@H]2C[C@H](O)[C@@H](CO)O2)c(=O)n1 [Decitabine]
Protocol: as §1

Vandetanib = compound: COc1cc2/c(=N/c3ccc(Br)cc3F)nc[nH]c2cc1OCC1CCN(C)CC1 [Vandetanib]
Protocol: as §1

Panobinostat = compound: Cc1[nH]c2ccccc2c1CCNCc1ccc(/C=C/C(=O)NO)cc1 [Panobinostat]
Protocol: as §1

ARQ197 = compound: O=C1NC(=O)[C@@H](c2cn3c4c(cccc24)CCC3)[C@@H]1c1c[nH]c2ccccc12 [ARQ197]
Protocol: as §1

Mitoxantrone = compound: O=C1c2c(O)ccc(O)c2C(=O)c2c(NCCNCCO)ccc(NCCNCCO)c21 [Mitoxantrone]
Protocol: as §1

Sirolimus = compound: CO[C@H]1C[C@@H]2CC[C@@H](C)[C@@](O)(O2)C(=O)C(=O)N2CCCC[C@H]2C(=O)O[C@H]([C@H](C)C[C@@H]2CC[C@@H](O)[C@H](OC)C2)CC(=O)[C@H](C)/C=C(\C)[C@@H](O)[C@@H](OC)C(=O)[C@H](C)C[C@H](C)/C=C/C=C/C=C/1C [Sirolimus]
Protocol: (§2)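 Same SRB 96 h IC50 screen on breast cancer cell lines (RPMI 1640 + 10% FBS, collagen I-coated 96-well plates, triplicates, 12 dilutions), for drugs with a different dose range: Bortezomib up to 2e-5 M; Sirolimus and 17-AAG up to 2e-6 M. Sirolimus values at the 2e-6 M top dose are censored.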

Bortezomib = compound: CC(C)C[C@H](NC(=O)[C@H](Cc1ccccc1)NC(=O)c1cnccn1)B(O)O [Bortezomib]
Protocol: as §2

17-AAG = compound: C=CCNC1=C2C[C@@H](C)C[C@H](OC)[C@H](O)[C@@H](C)/C=C(\C)[C@H](OC(N)=O)[C@@H](OC)/C=C\C=C(/C)C(=O)NC(=CC1=O)C2=O [17-AAG]
Protocol: as §2

Test System | IC50 (SRB growth assay) (Serdemetan) [nM] | IC50 (SRB growth assay) (Docetaxel) [nM] | IC50 (SRB growth assay) (Nutlin-3) [nM] | IC50 (SRB growth assay) (Sunitinib) [nM] | IC50 (SRB growth assay) (Quisinostat) [nM] | IC50 (SRB growth assay) (Paclitaxel) [nM] | IC50 (SRB growth assay) (Brivanib) [nM] | IC50 (SRB growth assay) (Vorinostat) [nM] | IC50 (SRB growth assay) (Cisplatin) [nM] | IC50 (SRB growth assay) (Tamoxifen) [nM] | IC50 (SRB growth assay) (Doxorubicin) [nM] | IC50 (SRB growth assay) (5-Fluorouracil) [nM] | IC50 (SRB growth assay) (Dasatinib) [nM] | IC50 (SRB growth assay) (Tipifarnib) [nM] | IC50 (SRB growth assay) (Gefitinib) [nM] | IC50 (SRB growth assay) (Azacitidine) [nM] | IC50 (SRB growth assay) (Erlotinib) [nM] | IC50 (SRB growth assay) (Lapatinib) [nM] | IC50 (SRB growth assay) (Belinostat) [nM] | IC50 (SRB growth assay) (Sorafenib) [nM] | IC50 (SRB growth assay) (Methotrexate) [nM] | IC50 (SRB growth assay) (MI-219) [nM] | IC50 (SRB growth assay) (Decitabine) [nM] | IC50 (SRB growth assay) (Vandetanib) [nM] | IC50 (SRB growth assay) (Panobinostat) [nM] | IC50 (SRB growth assay) (ARQ197) [nM] | IC50 (SRB growth assay) (Mitoxantrone) [nM] | IC50 (SRB growth assay) (Sirolimus) [nM] | IC50 (SRB growth assay) (Bortezomib) [nM] | IC50 (SRB growth assay) (17-AAG) [nM]
HCC 38 | 443 | 0.51 | > 10000 | 9910 | 3.31 | 1.39 | > 10000 | 610 | > 10000 | > 10000 | 5.51 | 2790 | 115 | 294 | > 10000 | 746 | > 10000 | 5520 | 250 | 5260 | 12.3 | > 10000 | 132 | 5540 | 6.57 | 131 | 1.89 | 0.166 | 5.22 | 72.2
SUM 52 PE | 570 | 0.489 | > 10000 | 1160 | 1.47 | 1.42 | 1270 | 366 | 6700 | 6890 | 17.7 | 1240 | 2200 | 185 | 7870 | 2000 | 8810 | 3210 | 183 | 655 | 23.2 | > 10000 | 2210 | 711 | 7.17 | 427 | 7.57 | 0.165 | 5.23 | 35.4
MDA-MB 468 | 837 | 0.515 | > 10000 | 2940 | 9.89 | 1.56 | > 10000 | 1030 | 974 | 4940 | 9.63 | 5280 | > 10000 | 77 | 990 | 2340 | 1150 | 762 | 436 | 4530 | 7.54 | > 10000 | 77.7 | 1990 | 14.9 | 222 | 4.09 | 2.22 | 4.31 | 745

Source: the supplement of paper PMC4628005
